Assay results reported in patent publication US7067500B2, “Betaines as adjuvants to susceptibility testing and antimicrobial therapy” (priority 1997, dated 2006).
Structures can show the parent of a compound that is named as a salt.

System: M. tuberculosis complex isolates ATCC 27294 and 571/573-BAL
Experiment: CB-18 titration, BACTEC 12B growth curves
Type: cell-based, Mycobacterium tuberculosis
Settings: for CB-18 concentration at which growth was completely shut down / CB-18 concentration at which growth was impacted to a minor degree: absence of antibiotics
[1] = ATCC 27294, presence of antibiotics

Compound: CCCCCCCCCCCCCCCCCC[N+](C)(C)CCCC(=O)[O-] [CB-18, N-(3-carboxypropyl)-N,N-dimethyl-1-octadecanaminium, inner salt]
- CB-18 concentration at which the isolate was viable (571/573-BAL, CB-18 alone): 13 µg/mL
- CB-18 concentration at which growth was completely shut down (571/573-BAL): 27 µg/mL
- CB-18 concentration at which growth was impacted to a minor degree (571/573-BAL): 13 µg/mL
- CB-18 concentration at which growth was absent (571/573-BAL, presence of antibiotics): 13 µg/mL
- CB-18 concentration at which growth was completely shut down (ATCC 27294): 54 µg/mL
- CB-18 concentration at which growth was impacted to a minor degree (ATCC 27294): 27 µg/mL
- CB-18 concentration at which growth was affected to a minor degree [1]: 13 µg/mL
- CB-18 concentration at which growth was nonexistent [1]: 27 µg/mL
- CB-18 concentration causing no alteration in growth (ATCC 27294 and 571/573-BAL, absence of antibiotics (FIGS. 10A and 11A)): 3 to 7 µg/mL
